Several values for one entry are separate records, joined by “and”; a condition that tells them apart may be missing. Equal entries are not always repeated. Entries after “also recorded” stand apart in the source; their conditions may differ. Where two headings read alike, the source gives them in different places.
Key:
cortical excitability [1] = test: TMS crossover study, global mean field power (GMFP); format: in vivo, human; details: 20 mg, pre-dose vs post-dose (FIG. 12)
Excerpt: Additional measures of cortical excitability including global mean field power were similarly impacted.

[2] = Transcranial magnetic stimulation pilot study (RMT/AMT, TEPs, rEEG); details: male, human, in vivo
Procedure: (§1) In a pilot study TMS was used to non-invasively determine whether Compound A (10, 15 and 20 mg) impacts cortical excitability. The TMS pilot study was designed to inform sample size calculation for a larger randomized, double-blind and placebo-controlled TMS cross-over study (N=20) with Compound A.
(§2) Eight healthy, right-handed male subjects (aged 21-35 years, 62.4-95.4 kg) from a First-in-Human Phase 1 study were enrolled in this open-label TMS pilot study. RMT, TEPs and EEGs were recorded prior to Compound A, 2 and 4 h post dose. Spectral analysis was performed on resting EEGs. Single-subject level analyses were performed via multiple independent sample t-tests to determine effects of Compound A on TEP amplitudes. Multiple comparisons were accounted for using clusterbased permutation analysis.

cortical excitability [3] = test: as above
Procedure: as §1, §2

[4] = First-in-human SAD and MAD study, safety and tolerability; format: in vivo; details: for Cmax: human, plasma, oral, read-out: individual Cmax levels up to which well tolerated
Procedure: A first-in-human study was conducted to evaluate the safety, tolerability and pharmacokinetics (PK) of single and multiple ascending doses (SAD and MAD) of oral Compound A.
In the SAD Phase, 32 healthy volunteers were randomized (3:1) to Compound A (5, 15, 20, 25 or 30 mg) or placebo. The study featured an adaptive design. A crossover food effect cohort (N=10) was also completed with single doses of 20 mg. A sub-set of 8 male subjects were also assessed with Transcranial Magnetic Stimulation (TMS) for effects on cortical excitability (see Examples 4 and 5).
Repeat doses of Compound A (15 mg QD) were evaluated in a fasted and fed state over 7 and 10 days, respectively. Repeat doses of Compound A (25 mg QD) were also evaluated in a fed state over 10 days.
Compound A was formulated as an immediate release capsule. Serial plasma PK samples were collected for all cohorts. Safety evaluations throughout the study included adverse event (AE) monitoring, clinical laboratory tests, vital signs, ECGs, physical examinations and Columbia-Suicide Severity Rating Scale.

[5] = tested on: GABA-A receptor mediated intracortical inhibition; test: TMS crossover study, short-interval intracortical inhibition (SICI); format: in vivo, human; details: for Short Intracortical Inhibition (Mean Conditioned MEP/Mean Unconditioned MEP): individual subjects; for Short Intracortical Inhibition (Mean Conditioned MEP/Mean Unconditioned MEP) / Short Intracortical Inhibition (Mean Conditioned MEP/Mean Unconditioned MEP), Mean: ISI 2 ms; for Short Intracortical Inhibition (Mean Conditioned MEP/Mean Unconditioned MEP), Mean: mean of subjects
Procedure: Short-interval intracortical inhibition (SICI) was measured using 15 conditioning-test stimuli pairs given in a random order at an interstimulus interval (ISI) of 2 ms. The conditioning stimulus was set at 80% of AMT and the suprathreshold stimulus 120% RMT. The calculation of SICI utilized custom scripts to measure the amplitudes of conditioned and unconditioned motor evoked potentials (MEPs) and to express SICI as the ratio of mean conditioned MEPs over mean unconditioned MEPs.

[6] = tested on: corticospinal excitability; test: TMS crossover study, TMS-EMG active motor threshold (AMT); format: in vivo, human; details: for Active Motor Threshold, post-dose change from baseline: individual subjects; for Active Motor Threshold, post-dose change from baseline / Active Motor Threshold, post-dose change from baseline (Mean): single 20 mg dose; for Active Motor Threshold, post-dose change from baseline (Mean): mean of subjects
Procedure: RMT and AMT values are reported as percentages of maximum stimulator output (% MSO). Drug-induced modulation of TMS-EMG parameters were evaluated over the 3 timepoints (2, 4, and 6 h) and for the timepoint with the highest drug exposure. AMT was recorded while subjects squeezed a manometer at 20% of each individual's maximum contraction force. […] AMT could not be registered for Subjects 912 and 940 at 2 hours after Compound A and placebo intake, respectively.

[7] = tested on: corticospinal excitability; test: TMS crossover study, TMS-EMG resting motor threshold (RMT); format: in vivo, human; details: for Resting Motor Threshold, post-dose change from baseline: individual subjects; for Resting Motor Threshold, post-dose change from baseline (Mean): mean of subjects
Procedure: PD assessments included resting state electroencephalogram (RS-EEG); TMS-EMG measurements including resting motor threshold (RMT), active motor threshold (AMT), and short-interval intracortical inhibition (SICI); and TMS-EEG measurements. All 20 subjects underwent TMS-EMG and TMS-EEG sessions prior to dosing on Days 1 and 7 and at 2 and 4 h after dosing. […] For the 6 h timepoint, RMT was performed for 16 subjects, and AMT, EEG resting state, and TMS-EEG was performed for 8 subjects. RMT and AMT values are reported as percentages of maximum stimulator output (% MSO). Drug-induced modulation of TMS-EMG parameters were evaluated over the 3 timepoints (2, 4, and 6 h) and for the timepoint with the highest drug exposure. Individual and averaged RMT values at baseline and change each timepoint for Compound A and placebo for all 20 subjects are presented in Table 18. […] In addition, RMT could not be registered for Subject 912 at 2 hours after Compound A intake.

[8] = single 20 mg dose, 2 h post-dose
[9] = single 20 mg dose, 4 h post-dose
[10] = single 20 mg dose, 6 h post-dose

## Cc1cc(N2CCc3cc(F)ccc3C2)cc(C)c1NC(=O)CC(C)(C)C [Compound A, N-[4-(6-fluoro-3,4-dihydro-1H-isoquinolin-2-yl)-2,6-dimethylphenyl]-3,3-dimethylbutanamide]
Cortical excitability [1]
  global mean field power (GMFP): reduction of cortical excitability over time
[2]; 10 mg
  concentration at 4 h: 23.1 ng/mL
[2]; 15 mg
  concentration at 4 h: 36.3 ng/mL
[2]; 20 mg
  concentration at 4 h: 50 ± 10 ng/mL
Cortical excitability [3]; 10 mg (N=2) and 15 mg (N=3)
  TEP modulation: did not show significant and robust TEP modulation
Cortical excitability [3]; 10 mg, N=2
  AMT: did not change AMT
Cortical excitability [3]; 10, 15, 20 mg
  SICI assessed with TMS/EMG: but not SICI
Cortical excitability [3]; 10, 15, 20 mg, 2 and 4 hours post-drug
  motor thresholds assessed with TMS/EMG: increased
Cortical excitability [3]; 4 h post 20 mg
  RMT increase from baseline: 4.3±0.6%
  theta power in rEEG: increased
Cortical excitability [3]; 4 h post 20 mg, p<0.01, N=3
  suppression of TEP amplitude, peak at 180 ms (P180): 1.92±0.03 μV
[4]; multiple doses
  Cmax: ≤ 107 ng/mL
[4]; single doses
  Cmax: ≤ 104 ng/mL
[4]; single and multiple doses
  SAEs, deaths, ECG or laboratory findings: no SAEs, deaths, or clinically significant ECG or laboratory findings
[4]; single and multiple doses, e.g. dizziness, sedation
  severity of the majority of AEs: mild or moderate
[4]; single doses of up to 30 mg and multiple doses of 25 mg QD
  safety and tolerability: safe and well-tolerated
[5]; 20 mg single dose
  SICI (mean conditioned MEPs/mean unconditioned MEPs): no significant findings; also recorded: lack of an effect on SICI
[5]; 2 h post-dose
  Short Intracortical Inhibition (Mean Conditioned MEP/Mean Unconditioned MEP): 0.71 and 0.72 and 1.29 and 0.91 (2×) and 0.94 and 1.11 and 0.96 and 1.18 and 2.68 and 0.92 (2×) and 0.97 and 1.12 and 1.31 and 1.09 and 1.03 and 0.85 and 0.67
  Short Intracortical Inhibition (Mean Conditioned MEP/Mean Unconditioned MEP), Mean: 1.07
[5]; 4 h post-dose
  Short Intracortical Inhibition (Mean Conditioned MEP/Mean Unconditioned MEP): 1.03 (2×) and 0.93 and 0.54 and 1.20 and 1.68 and 1.64 and 0.86 and 0.61 and 1.01 and 1.53 and 1.04 and 1.17 and 0.89 and 1.27 and 0.87 and 0.75 and 1.07 and 1.02
  Short Intracortical Inhibition (Mean Conditioned MEP/Mean Unconditioned MEP), Mean: 1.06
[6]; 20 mg single dose
  AMT: increased
[6]; 20 mg, 6 h post-dose, p<0.01
  change from baseline in AMT vs placebo: significantly different from placebo
[6]; 2 h post-dose
  Active Motor Threshold, post-dose change from baseline: 2 % MSO (3×) and 4 % MSO and 0 % MSO (9×) and 3 % MSO and 1 % MSO (5×)
  Active Motor Threshold, post-dose change from baseline (Mean): 0.9 % MSO
[6]; 4 h post-dose
  Active Motor Threshold, post-dose change from baseline: 2 % MSO (4×) and 4 % MSO and 0 % MSO (9×) and 3 % MSO (4×) and 1 % MSO (2×)
  Active Motor Threshold, post-dose change from baseline (Mean): 1.3 % MSO
[6]; 6 h post-dose
  Active Motor Threshold, post-dose change from baseline: 0 % MSO (4×) and 6 % MSO and 1 % MSO (3×) and 2 % MSO (2×) and 3 % MSO (5×) and 4 % MSO
  Active Motor Threshold, post-dose change from baseline (Mean): 2.0 % MSO
[7]; 20 mg single dose
  RMT: significant increase in RMT
[7]; 20 mg, 6 h
  RMT increase, mean±SEM: 4.9±0.7%
[7]; 20 mg, 6 h post-dose
  effect on RMT: > 4%
[7]; [8]
  Resting Motor Threshold, post-dose change from baseline: 3 % MSO (4×) and 1 % MSO (4×) and 0 % MSO (7×) and 2 % MSO (3×) and 6 % MSO
  Resting Motor Threshold, post-dose change from baseline (Mean): 1.5 % MSO
[7]; [9]
  Resting Motor Threshold, post-dose change from baseline: 7 % MSO (2×) and 1 % MSO (4×) and 0 % MSO (4×) and 6 % MSO (2×) and 3 % MSO (3×) and 5 % MSO and 10 % MSO and 2 % MSO (2×) and 4 % MSO
  Resting Motor Threshold, post-dose change from baseline (Mean): 3.1 % MSO
[7]; [10]
  Resting Motor Threshold, post-dose change from baseline: 8 % MSO (2×) and 4 % MSO (3×) and 6 % MSO (2×) and 10 % MSO and 1 % MSO (2×) and 0 % MSO and 7 % MSO (3×) and 3 % MSO (2×)
  Resting Motor Threshold, post-dose change from baseline (Mean): 4.9 % MSO
[7]; single 20 mg dose, 2, 4, and 6 h post-dose
  RMT compared to time matched placebo: increased RMT from baseline

Source: patent publication US11135214B2, “Methods for enhancing the bio availability and exposure of a voltage-gated potassium channel opener” (priority 2018, dated 2021)
